Results on two molecules are retold here after US20030092010A1, “Molecular switches” (priority 1999, published 2003).

SMILES strings stand for the structures. *1 amine or outer side, *2 acyl side, *3 side chain or, on linkers, in order; H or OH if unused. Where a SMILES comes first, the peptide text is derived from it. Bridges are numbered along the chain shown (N, C = ends). Roman numbers before positions name the chains, in order. [ ]: non-standard residue; d: D form. Actinocin(9to1) = Cc1c2oc3c(C)ccc(C(=O)[*:1])c3nc-2c(C(=O)[*:2])c(N)c1=O; NMeV = CN[C@H](C(=O)O)C(C)C; Sar = CNCC(=O)O

One assay has as its system DNA sequence AGCTTGGCG
Put plainly: phage ELISA: zinc finger phage binding to DNA target in presence and absence of actinomycin D. The following applies: FIG. 2; phage AD clone 1 and 6. As for the experimental part:
Essentially the method was the same as used in the previous section using four rounds of a preselection step followed by a selection step, washing and elution. Differences in the method are described. The preselection step comprised of 7.5 μmol of biotinylated DNA target site immobilised on 18.75 μl streptavidin coated beads (Dynal) in a 100 μl mixture containing 4 μl phage library 96 μl PBS, 2% Marvel. 1% Tween-20. 50 μM ZnCl2 for 1 hour at room temperature with constant mixing. Phage selections were made in streptavidin coated tubes with the phage supernatant, 5 nM biotinylated target DNA, 10 μM actinomycin D in the presence of 1 μg poly [d(I-C)] competitor. The selections were incubated for 1 hour at room temperature. The bound phage were washed and eluted as described above.
ELISA was performed as described above but using 5 nM biotinylated target DNA. 0.25 μg poly[d(I−C)] competitor in the assay and 10 μM actinomycin D where appropriate. Phage were sequenced using Big Dye Terminator Cycle Sequencing Kit (Perkin Elmer Biosystems) and automated sequencing.

In the next assay the test system is DNA target AGCTTGGCG
Put plainly: dissociation of zinc finger phage from DNA target by actinomycin D. In kind it is binding. As for the experimental part: (§1) This example describes phage that bound DNA targets with higher affinity in the absence of ligand. These phage were isolated using either: (a) the same method as in example 1.1, or (b) by selection in the absence of small molecule and phage elution from DNA using a small molecule.
(§2) Phage selection is over 4 rounds. Binding reactions contain […] biotinylated DNA site immobilised on 50 mg streptavidin coated beads (Dynal) and a 1 ml solution of ;zinc finger phage library (as described in 1.1) Reactions were incubated for 1 h on a rolling platform. After this time, beads were washed 20 times as described in 1.1 and finally phage were eluted from the beads over 5 minutes using a solution containing ligand (10 μM Distamycin A, or 1 μM Actinomycin D in PBS/Zn).
The actinomycin D sensitive clone was selected with the DNA target AGCTTGGCG and its helices were sequenced as: […]

The subject of another assay is DNA sequence AAAAAGGCG
The assay is described as follows: phage ELISA: zinc finger phage binding to DNA target site in presence and absence of distamycin A. The following applies: FIG. 1; phage clone 3 (3/2F) and clone 4 (4/EF).

Assay [1] concerns CAT reporter gene downstream of the sequence AAAAAAGGCG
Put plainly: transient transfection CAT reporter assay with zinc finger-HSV VP16 fusion. The following applies: in the presence of Distamycin A; zinc finger-HSV VP16 fusion cotransfected. In kind it is cell-based. The source says: A reporter system is produced which produces a reporter signal conditionally depending on the binding of the zinc finger DNA binding molecule to its target DNA sequence.
A transient transfection system using zinc finger transcription factors is produced as described in Choo, Y., et al., (1997) J. Mol. Biol 273:525-532. This system comprises an expression plasmid which produces a phage-selected zinc finger fused to the activation domain of HSV VP 16. and a reporter plasmid which contains the recognition sequence of the zinc finger upstream of a CAT reporter gene.
Thus, a zinc finger which recognises the DNA sequence AAAAAAGGCG is selected by phage display as described in Example 1. By the method of the preceding examples said zinc finger is used to construct transcription factors as described above.
A transient expression experiment is conducted, wherein the CAT reporter gene on the reporter plasmid is placed downstream of the sequence AAAAAAGGCG. The reporter plasmid is cotransfected with a plasmid vector expressing the zinc finger-HSV fision under the control of a constitutive promoter. No activation of CAT gene expression is observed.
Background: A reporter such as luciferase makes a cellular process visible.

Assay [2] deals with DNA target AAAAAGCGGAAAAA
Put plainly: dissociation of zinc finger phage from DNA target by distamycin A. Type of assay: binding. As for the experimental part: as §1, §2
Some phage isolated by either of the above methods (a or b) bound DNA in the absence of ligand but could be displaced by concentrations of distamycin A at 10 μM and actinomycin D at 1 μM. The distamycin sensitive clone was selected using the DNA target AAAAAGCGGAAAAA and its helices were sequenced as: […]

The mark [3] stands for this setting: phage bound DNA in the absence of ligand.

On to `Cc1c2oc3c(C)ccc(C(=O)N[C@@H]4C(=O)N[C@H](C(C)C)C(=O)N5CCC[C@H]5C(=O)N(C)CC(=O)N(C)[C@@H](C(C)C)C(=O)O[C@@H]4C)c3nc-2c(C(=O)N[C@@H]2C(=O)N[C@H](C(C)C)C(=O)N3CCC[C@H]3C(=O)N(C)CC(=O)N(C)[C@@H](C(C)C)C(=O)O[C@@H]2C)c(N)c1=O` [Actinomycin D] (I: T[dV]P[Sar][NMeV] / II: T[dV]P[Sar][NMeV]; ester I:1-I:C, II:1-II:C; linker I:N-II:N via Actinocin(9to1)), for which, in the assay on DNA sequence AGCTTGGCG, the “effect of Actinomycin D concentration on binding of phage to the DNA sequence AGCTTGGCG” value is recorded as “causes phage binding to nucleic acid”. Besides, the “dissociation / displacement of phage from DNA by actinomycin D” value in the assay with DNA target AGCTTGGCG (FIG. 6, actinomycin D sensitive clone) was “dissociated from the DNA”. In addition, the “actinomycin D concentration at which DNA-bound phage could be displaced” value in the assay on DNA target AGCTTGGCG (setting [3]) came to 1 µM.
Turning to `Cn1cc(NC(=O)c2cc(NC(=O)c3cc(NC=O)cn3C)cn2C)cc1C(=O)NCCC(=N)N` [Distamycin A], the “effect of Distamycin A concentration on binding of phage to the DNA sequence AAAAAGGCG” value in the assay on DNA sequence AAAAAGGCG is listed as “causes phage binding to nucleic acid”. The “CAT reporter gene expression” value in assay [1] is given as “CAT expression is observed”. Also, the “dissociation / displacement of phage from DNA by distamycin A” value in assay [2] (FIG. 6, distamycin sensitive clone) is on record as “dissociated from the DNA”. The “distamycin A concentration at which DNA-bound phage could be displaced” value in assay [2] (setting [3]) is 10 µM.
